Patent US10576086B2, “Triazine derivatives as interferon-gamma inhibitors” (University of Greenwich, priority 2015, dated 2020)
Like-named read-outs stand apart in the source and are kept apart here.

What was measured:
[1] = test system: IFN-γ production in human peripheral blood mononuclear cells (PBMCs); assay: Experiment 1: IFN-γ production by PHA-stimulated human PBMCs, ELISA; type: cell-based; details: for IFN-γ Concentration, Mean: mean of first three subjects, 24 h
Description: The ex vivo activity of various compounds towards suppression of IFN-γ production in human peripheral blood mononuclear cells (PBMCs) was studied.
[…] They were not taking any other prescribed medication that could interfere with the results.
The blood was transferred into 50 ml centrifuge tubes (Corning, USA) containing heparin sodium salt 37.5 mg heparin powder diluted in 300-500 μl phosphate buffered saline (PBS) for 50 ml blood), and centrifuged at 2000 rpm for 10 minutes, and the plasma portion was separated. The plasma was further centrifuged at 3000 rpm for 10 minutes, and the supernatant separated and kept for later use.
The blood cells from the initial centrifugation were diluted with an equal volume of RPMI-1640 (Sigma, UK), and layered (2:1) onto Lymphoprep (Axis-Shield, Norway) in 25 ml universal tubes (Bibby Sterilin, UK) for density gradient centrifugation at 2500 rpm for 30 minutes.
PBMCs (lymphocytes and monocytes) were then removed from the interface, diluted in an equal volume of RPMI-1640 and washed twice by centrifugation at 3000 rpm for 10 minutes.
For testing, the PBMCs were re-suspended in a known volume of culture medium containing RPMI-1640 supplemented with 2 mM L-glutamine, 100 U penicillin, and 100 μg streptomycin (Sigma, UK).
The cell count was determined by the use of a haemocytometer using 10 μl of the cell suspension. The number of cells was determined based on a count in 5 random 1 mm squares.
The cell solution was then diluted with the supplemented RPMI-1640 medium to ensure a cell count of 2×10^6 cells/ml.
The PBMC suspension was added to tissue culture tubes (Bibby Sterilin, UK) with 5% autologous plasma, 5 μg/mlphytohaemaglutinin (PHA) to stimulate T-lymphocyte IFN-γ production, and a solution containing various concentrations of the compound to be studied. A control containing no compound was also cultured for each subject.
In the case of lamotrigine, the isethionate salt was used, and diluted with RPMI-1640 to produce 100 μM, 30 μM, 10 μM and 3 μM solutions that were tested on PBMCs from the first three subjects. With PBMC's from the other two subjects, a 300 μM solution was also tested.
For sipatrigine, the mesylate salt was used, and diluted with RPMI-1640 to produce 30 μM, 10 μM, 3 μM and 1 μM solutions. It was tested on PBMCs from the first three subjects only.
The tubes were incubated at 37° C. for 24 hours under a 5% CO2 atmosphere. After incubation, the cells (>75% viable according to trypan blue test) were centrifuged at 3000 prm for 10 minutes, and the cell-free supernatants were collected and stored at −70° C. before analysis for IFN-γ.
Levels of IFN-γ produced by the PBMCs were determined by the DuoSet ELISA Development system for human IFN-γ (RD Systems, UK), with a sensitivity of 15.6-1000 pg/ml.
Capture antibody, detection antibody, standard and streptavidin-HRP (streptavidin conjugated to horseradish peroxidase) were provided. A 96-well microtitre plate (Corning CoStar, flat bottom, polystyrene, high binding microtitre plate, UK) was coated with 100 μl per well of capture antibody (mouse anti-human IFN-γ at 4.0 μg/ml), sealed and incubated overnight. Unbound capture antibody was washed from the wells three times, using a wash buffer (0.05% Tween 20 in PBS). Block buffer (1% bovine serum albumin (BSA) in PBS) was then added. After incubation for 1 hour, the wells were washed, and sample culture supernatants or standards were added. A 7-point standard curve (in the range 15.6-1000 pg/ml) was produced from […] recombinant human IFN-γ using 2-fold serial dilutions in reagent diluent (0.1% BSA, 0.05% Tween 20 in tris-buffered saline (20 mM Trizma base, 150 mM NaCl)). The sealed plates were left to incubate for 2 hours.
After further washing, the detection antibody (biotinylated goat anti-human IFN-γ at 175 ng/ml) was added, and the plates sealed and incubated for a further 2 hours. […]

[2] = test system: IFN-γ production in human peripheral blood mononuclear cells (PBMCs); assay: Experiment 2: IFN-γ production by PHA-stimulated human PBMCs, ELISA; type: cell-based; details: for [IFN-γ]: PHA 5 μg/ml; for inhibition of IFN-γ production in PBMCs (in words): Experiment 2, human PBMCs; for IC50: human PBMCs, PHA-stimulated, read-out: IC50 (concentration to inhibit IFN-γ production by 50%)
Description: A similar set of tests were carried out, in which three compounds known as CEN-079(3,5-diamino-6-[2-(3,4,5-trichlorothienyl)]-1,2,4-triazine), CEN-092(3,5-diamino-6-(3,5-bistrifluoromethylphenyl)-1,2,4-triazine) and CEN-216(3,5-diamino-6-(2,3-dichlorophenyl)-2,3(2,5)-dihydro-3(5)-imino-2-(2,2,2-trichloroethyl)-1,2,4-triazine) were compared with lamotrigine. CEN-079, CEN-092 and CEN-216 are within the scope of Formulae 1, 2 and 3.
50 ml of blood from three healthy adult donors was collected by venepuncture in heparinised tubes. The blood samples where centrifuged at 3000 rpm for 15 minutes. The supernatant plasma was collected in a centrifuge tube, and centrifuged at 3000 rpm for a further 10 minutes. The supernatant was then collected in a plain tube, and stored at −70° C. for future use.
The cells from the first centrifuged heparinised tube were diluted 1:1 in RPMI-1640, and mixed by multiple inversions. The cell mixture was then slowly layered, using a sterile plastic 3 ml pipette, along a tube wall containing lymphoprep (Nycomed) at a ratio of 2:1 cells/RPMI-1640:Lymphoprep in a 25 ml universal tube. The mixture was centrifuged at 2400 rpm for 30 minutes, and left to stand for 20 minutes. PBMCs were slowly removed from the interface using a sterile plastic pipette, and collected in a 15 ml centrifuge tube.
The cells were washed twice by diluting in RPMI-1640 with 2 mM L-glutamine, 100 U/ml penicillin and 100 μg/ml streptomycin at a ratio of 1:1. The mixture was centrifuged at 3000 rpm for 15 minutes, and the supernatant decanted. PBMCs were then diluted in RPMI-1640 containing 2 mM L-glutamine, 100 U/ml penicillin and 100 μg streptomycin, to make up a volume of 6 ml for subjects 1 and 2, and 9 ml for subject 3.
Cells were counted using an Improved Neubauer haemocytometer (Hawksley, UK) on a light microscope. 10 μl of cell suspension was loaded onto the haemocytometer using a sterile plastic pipette. Cells were counted in five out of 25 1 mm squares, from which the total cell count was calculated.
5 μg/ml PHA was used as a T cell activating agent for the production of IFN-γ. The PBMCs were treated with the four test compounds (lamotrigine, CEN-079, CEN-092, CEN-216) at concentrations of 10 μM, 30 μM and 300 μM to assess their effects on IFN-γ production by the stimulated T cells.
The tests were carried out as for Experiment 1, in which 2×10^6 PBMC/ml, 25 μl of 5% autologous plasma, and 2.63 μl of 5 μg/ml PHA were used. Test compound at each concentration was then added, except for one control case.
10 μM solutions were obtained by adding 1.05 μl of a 5 mM solution of the compounds to the above PBMC-containing solution. 30 μM solutions were obtained by adding 3.15 μl of the 5 mM solution of the compounds. 300 μM solutions were obtained by adding […] solutions of the compounds.
The tubes were covered, gently shaken to mix the contents, and incubated for 24 hours at 37° C. The tubes were then centrifuged at 2500 rpm for 10 minutes. The supernatant was collected in a 3 ml plastic pipette, and aliquots were stored at −70° C. before being analysed.
The test was performed according to the supplier's instructions. Donor samples were diluted 1:1 in phosphate buffered […] (PBS) and assayed simultaneously with IFN-γ standard samples, in duplicate. The standard curve ranged from 15.6 pg/ml to 1000 pg/ml.
A 96-well multiwell microplate (high binding Costar) was prepared, by diluting a capture antibody (720 μg/ml of mouse anti-human IFN-γ) in PBS to a working concentration of 4.0 μg/ml. 100 μl was immediately coated on each well, and left overnight at room temperature. The wells were washed three times in wash buffer, using microplate autowasher (LT-3000, LabTech International Ltd). The remainder of the wash buffer in the wells was removed by blotting on to clean paper towels. The plate was blocked by adding 300 μl Block buffer (1% BSA in PBS) to each well and incubated at room temperature for 1 hour. […]

Row | Compound | [IFN-γ] vs control ([2]; 10 μM, Subject 1, 24 h) | [IFN-γ] ([2]; 10 μM, Subject 1, 24 h) | [IFN-γ] vs control ([2]; 10 μM, Subject 2, 24 h) | [IFN-γ] ([2]; 10 μM, Subject 2, 24 h) | [IFN-γ] vs control ([2]; 10 μM, Subject 3, 24 h) | [IFN-γ] ([2]; 10 μM, Subject 3, 24 h) | [IFN-γ] vs control ([2]; 30 μM, Subject 1, 24 h) | [IFN-γ] ([2]; 30 μM, Subject 1, 24 h) | [IFN-γ] vs control ([2]; 30 μM, Subject 2, 24 h) | [IFN-γ] ([2]; 30 μM, Subject 2, 24 h) | [IFN-γ] vs control ([2]; 30 μM, Subject 3, 24 h) | [IFN-γ] ([2]; 30 μM, Subject 3, 24 h) | [IFN-γ] vs control ([2]; 300 μM, Subject 1, 24 h) | [IFN-γ] ([2]; 300 μM, Subject 1, 24 h) | [IFN-γ] vs control ([2]; 300 μM, Subject 2, 24 h) | [IFN-γ] ([2]; 300 μM, Subject 2, 24 h) | [IFN-γ] vs control ([2]; 300 μM, Subject 3, 24 h) | [IFN-γ] ([2]; 300 μM, Subject 3, 24 h) | inhibition of IFN-γ production in PBMCs (in words) [2] | also measured
1 | CN1CCN(c2ncc(-c3cc(Cl)cc(Cl)c3Cl)c(N)n2)CC1 [Sipatrigine, 4-amino-2-(4-methyl-1-piperazinyl)-(2,3,5-trichlorophenyl)-pyrimidine] | – | – | – | – | – | – | – | – | – | – | – | – | – | – | – | – | – | – | – | IFN-γ Concentration, Mean ([1]; 1 μM): 1275.07 pg/mL; IFN-γ Concentration, Mean ([1]; 3 μM): 1227.27 pg/mL; IFN-γ Concentration, Mean ([1]; 10 μM): 1331.70 pg/mL; IFN-γ Concentration, Mean ([1]; 30 μM): 892.89 pg/mL; inhibition of IFN-γ production (in words) ([1]; Experiment 1, human PBMCs): did not inhibit IFN-γ production
2 | Nc1nnc(-c2sc(Cl)c(Cl)c2Cl)c(N)n1 [CEN-079, 3,5-diamino-6-[2-(3,4,5-trichlorothienyl)]-1,2,4-triazine] | 22.1% | 154.5 pg/mL | 36.9% | 757.5 pg/mL | 28.7% | 611.5 pg/mL | 7.60% | 53 pg/mL | 1.80% | 178.5 pg/mL | 2.0% | 41.5 pg/mL | 0.0% | 0.00 pg/mL | 0.0% | 0.0 pg/mL | 0.0% | 0.0 pg/mL | significantly more effective inhibitors compared to lamotrigine | IC50 [2]: 6 µM
3 | N=c1nc(N)c(-c2cccc(Cl)c2Cl)nn1CC(Cl)(Cl)Cl [CEN-216, 5(3)-Amino-6-(2,3-dichlorophenyl)-2,3(2,5)-dihydro-3(5)-imino-2-(2,2,2-trichloroethyl)-1,2,4-triazine] | 0.0% | 0.00 pg/mL | 9.2% | 187.0 pg/mL | 3.9% | 82.0 pg/mL | 0.0% | 0.00 pg/mL | 2.9% | 59.0 pg/mL | 5.7% | 122.0 pg/mL | 0.0% | 0.00 pg/mL | 0.0% | 0.0 pg/mL | 0.0% | 0.0 pg/mL | significantly more effective inhibitors compared to lamotrigine | –
4 | Nc1nnc(-c2cc(C(F)(F)F)cc(C(F)(F)F)c2)c(N)n1 [CEN-092, 3,5-diamino-6-(3,5-bistrifluoromethylphenyl)-1,2,4-triazine] | 16.1% | 112.5 pg/mL | 36.0% | 728.5 pg/mL | 19.9% | 423.5 pg/mL | 7.4% | 52.0 pg/mL | 24.6% | 499.0 pg/mL | 4.3% | 91.5 pg/mL | 0.0% | 0.00 pg/mL | 0.0% | 0.0 pg/mL | 6.9% | 146.0 pg/mL | significantly more effective inhibitors compared to lamotrigine | IC50 ([2]; PBMC): 3 µM
